From patent US10517870B2, “Aryl substituted bicycle heteroaryl compounds” (Bristol-Myers Squibb Company, priority 2015, dated 2019) come the findings set out here.

What all share (assay type): cell-based
One assay concerns C33A (HPV−) cells. The experiment in a line: Cell proliferation/viability assay, C33A cells. To be noted: Homo sapiens, C-33-A, 96 h; C33A, HPV-negative, 4 days; read-out: C33A (HPV−) Proliferation IC50. The protocol: (§1) Caski (catalog number CRL-1550), SiHa (catalog number HTB-35), C33A (catalog number HTB-31), Saos-2 (ATCC HTB-85), and Hela (catalog number CCL-2) cells were obtained from the American Type Culture Collection (ATCC). The human cervical carcinoma cell lines Caski. SiHa, Hela and C33A, and the human osteosarcoma cell line Saos-2, and the human keratinocyte cell line HaCaT were cultured in Dulbecco's Modified Eagle Medium (DMEM, Invitrogen catalog number 11965-092) supplemented with 10% fetal bovine serum. The colorectal carcinoma cell line HCT-116 was cultured in Roswell Park Memorial Institute-1640 Medium (Invitrogen catalog number 11875-093) supplemented with 10% FBS. All cells were incubated at 37° C. in a humidified atmosphere with 5% CO2 in air. To establish the SCHPV-18 cell line, one million primary neonatal human foreskin keratinocytes (Invitrogen, catalog no. C-001-5C), cultured in KBM Gold-keratinocvte cell basal medium (Lonza, catalog no. 192060), were electroporated with 5 μg HPV-18 plasmid DNA (ATCC catalog no. 45152D) using the Amaxa Nucleofector II on setting T-007. Cells were co-transfected with 2 μg plasmid pZSGreen1-N1 (Clontech catalog no. 632448) encoding G418 resistance, and cells were selected for four days in 100 μg/ml G418, after which selection was removed. Cells were maintained in culture six months prior to compound testing. Integration of the HPV 18 genome was confirmed by Southern blot. Control cells transfected in parallel with pZSGreen1-N1 alone became senescent four days after selection and the culture could not be expanded. SCHPV-18 cells were maintained in E medium (Fehrmann F, Laimins L A. Human papillomavirus type 31 life cycle: methods for study using tissue culture models. Methods Mol Biol 2005; 292:317-330).
(§2) For proliferation assays, cells were plated in white polystyrene 96-well plates (Costar catalog number 3917) for CellTiter Glo viability assays or 96-well special optics plates (Costar cat #3614) for CellTiter Blue viability assays. Cells were plated in the appropriate growth medium without antibiotics. Two hours after cell plating, a 200× compound stock diluted in DMSO was added to a final concentration of 0.5%. Plates were incubated at 37° C., for 4 days and then cell viability was assessed using either CellTiter Blue (Promega catalog number G8081) or CellTiter Glo (Promega catalog number G7572) according to the manufacturer's instructions. For the CellTiter Blue viability assay, data was collected using the SpectraMax Gemini EM (Molecular Devices) with an excitation wavelength of 530 nm and emission wavelength of 590 nm. For the CellTiter Glo viability assay, data was collected using the Envision Mulitlabel Reader (Perkin Elmer catalog number 2104-0010). To calculate IC50 and EC50 values, percent inhibition curves were fit using a four-parameter logistic formula [y=A+[…]], where A and B denote minimal and maximal % inhibition, respectively, C is the IC50 value, D is the Hill slope, and x represents compound concentration.
(§3) Table C, below, sets out the results obtained employing various compounds of the invention tested for their effects on proliferation of such cells. Caski or SiHa cells, transformed by HPV 16, Hela cells, transformed by HPV 18, or HPV-negative control cell lines (Saos-2 or C33a) were treated with various compounds. […] Unlike the HPV-negative Saos-2 or C33a cell lines, the HPV-transformed cell lines rely on the presence of HPV for their continued proliferation. Therefore, a comparison of IC50 values from HPV-transformed cell lines with IC50 values obtained from HPV-negative cell lines can be used to test for compound selectivity.

The next assay concerns Caski (HPV16+) cells. Nature of the assay: Cell proliferation/viability assay, Caski cells. The conditions noted are these: Homo sapiens, Ca-Ski, 96 h, 4 days. Here is the method: as §1, §2, §3
Another assay concerns Saos-2 (HPV−) cells. The experiment in a line: Cell proliferation/viability assay, Saos-2 cells. The conditions noted are these: Homo sapiens, 96 h; Saos-2, HPV-negative, 4 days; read-out: Saos-2 (HPV−) Proliferation IC50. Here is the method: as §1, §2, §3
A further assay relates to HeLa (HPV18+) cells. Nature of the assay: Cell proliferation/viability assay, HeLa cells. The conditions noted are these: Homo sapiens, 96 h, 4 days. The protocol:
as §1, §2, §3

Another assay has as its system SiHa (HPV16+) cells. Nature of the assay: Cell proliferation/viability assay, SiHa cells. To be noted: Homo sapiens, 96 h, 4 days. The protocol: as §1, §2, §3

Turning to `COc1ccc(-c2cc3ncc(OC(F)F)nc3cc2C(F)(F)F)cc1` [Example 7, 2-(difluoromethoxy)-6-(4-methoxyphenyl)-7-(trifluoromethyl)quinoxaline], the IC50 was over 100 µM in the assay with C33A (HPV−) cells; 5 µM with Caski (HPV16+) cells; 92.1 µM in the assay on Saos-2 (HPV−) cells; 4.4 µM in the assay with HeLa (HPV18+) cells; 4.3 µM in the assay on SiHa (HPV16+) cells.

Consider `COc1ccc(-c2cc(C(F)(F)F)cc3nc(OC(F)F)cnc23)cc1C(F)(F)F` [Example 9, 2-(difluoromethoxy)-5-(4-methoxy-3-(trifluoromethyl)phenyl)-7-(trifluoromethyl)quinoxaline], for which the IC50 with C33A (HPV−) cells was 78.7 µM; with Caski (HPV16+) cells it was 3.3 µM; in the assay on Saos-2 (HPV−) cells, 76.2 µM; with HeLa (HPV18+) cells, 1.5 µM; with SiHa (HPV16+) cells, 1.7 µM.

Take `COc1cccc(-c2cc(C(F)(F)F)cc3nc(OC(F)F)cnc23)c1` [Example 10, 2-(difluoromethoxy)-5-(3-methoxyphenyl)-7-(trifluoromethyl)quinoxaline]: the IC50 in the assay with C33A (HPV−) cells is over 99.5 µM; in the assay on Caski (HPV16+) cells, 3.9 µM; with Saos-2 (HPV−) cells, 55 µM; in the assay on HeLa (HPV18+) cells, 4.4 µM; in the assay on SiHa (HPV16+) cells it was 5.1 µM.

As for `COc1ccc2cc(-c3cc(C(F)(F)F)cc4nc(OC(F)F)cnc34)ccc2c1` [Example 11, 2-(difluoromethoxy)-5-(6-methoxynaphthalen-2-yl)-7-(trifluoromethyl)quinoxaline], the IC50 in the assay with C33A (HPV−) cells was over 99.5 µM; in the assay on Caski (HPV16+) cells it was 2.9 µM; with Saos-2 (HPV−) cells, 45.9 µM; with HeLa (HPV18+) cells it was 2.1 µM; with SiHa (HPV16+) cells, 2.7 µM.

Consider `COc1ccc(-c2cc(C(F)(F)F)cc3nc(OC(F)F)cnc23)cc1F` [Example 12], for which the IC50 in the assay with C33A (HPV−) cells is over 99.5 µM; in the assay on Caski (HPV16+) cells it was 3.2 µM; in the assay on Saos-2 (HPV−) cells, 14.3 µM; in the assay on HeLa (HPV18+) cells it was 1.1 µM; in the assay with SiHa (HPV16+) cells it was 1.3 µM.

In the case of `COc1cc(-c2cc(C(F)(F)F)cc3nc(OC(F)F)cnc23)cc(C(F)(F)F)c1` [Example 13, 2-(difluoromethoxy)-5-(3-methoxy-5-(trifluoromethyl)phenyl)-7-(trifluoromethyl)quinoxaline], the IC50 in the assay on C33A (HPV−) cells amounted to 40.5 µM; in the assay on Caski (HPV16+) cells, 15.6 µM; in the assay with Saos-2 (HPV−) cells, 40.3 µM; in the assay on HeLa (HPV18+) cells, 37 µM; in the assay with SiHa (HPV16+) cells it was 24 µM.

`COc1ccc(-c2cc(C(F)(F)F)cc3ncc(OC(F)F)nc23)cc1` [Example 14, 2-(difluoromethoxy)-8-(4-methoxyphenyl)-6-(trifluoromethyl)quinoxaline]: the IC50 came out at 49.9 µM in the assay on C33A (HPV−) cells; 2.8 µM with Caski (HPV16+) cells; 57.7 µM with Saos-2 (HPV−) cells; 2.6 µM in the assay on HeLa (HPV18+) cells; 2.9 µM in the assay with SiHa (HPV16+) cells.

For `COc1ccc(-c2cc(C)cc3nc(OC(F)F)cnc23)cc1C(F)(F)F` [Example 16, 2-(difluoromethoxy)-5-(4-methoxy-3-(trifluoromethyl)phenyl)-7-methylquinoxaline], the IC50 was over 99.5 µM in the assay on C33A (HPV−) cells; 7 µM in the assay on Caski (HPV16+) cells; over 99.5 µM in the assay on Saos-2 (HPV−) cells; 9.1 µM in the assay on HeLa (HPV18+) cells; 9.4 µM in the assay on SiHa (HPV16+) cells.

On to `Cc1cc(-c2ccc(F)c(C(F)(F)F)c2)c2ncc(OC(F)F)nc2c1` [Example 17, 2-(difluoromethoxy)-5-(4-fluor-3-(trifluoromethyl)phenyl)-7-methylquinoxaline], for which the IC50 with C33A (HPV−) cells came to 58.3 µM; with Caski (HPV16+) cells it was 17.9 µM; with Saos-2 (HPV−) cells, 96.5 µM; in the assay on HeLa (HPV18+) cells it was 23.7 µM; with SiHa (HPV16+) cells, 17.8 µM.

For `Cc1cc(-c2cccc(C(F)(F)F)c2)c2ncc(OC(F)F)nc2c1` [Example 25, 2-(difluoromethoxy)-7-methyl-5-(3-(trifluoromethyl)phenyl)quinoxaline], the IC50 in the assay with C33A (HPV−) cells was over 100 µM; in the assay with Caski (HPV16+) cells it was 14.5 µM; with Saos-2 (HPV−) cells it was over 100 µM; in the assay with HeLa (HPV18+) cells, 15.2 µM; in the assay with SiHa (HPV16+) cells, 11.7 µM.
